Test results: patent US20060223879A1, “Non-steroidal farnesoid x receptor modulators” (priority 2002, published 2006)
“Also recorded” adds a separate entry of the source. Like-named read-outs stand apart in the source and are kept apart here.

Biological target: T1, FXR (Homo sapiens, UniProt Q96RI1)
T1 construct: using a full length FXR on a natural response element; expressed in transfected cells
T1 sequence (Q96RI1 1-486): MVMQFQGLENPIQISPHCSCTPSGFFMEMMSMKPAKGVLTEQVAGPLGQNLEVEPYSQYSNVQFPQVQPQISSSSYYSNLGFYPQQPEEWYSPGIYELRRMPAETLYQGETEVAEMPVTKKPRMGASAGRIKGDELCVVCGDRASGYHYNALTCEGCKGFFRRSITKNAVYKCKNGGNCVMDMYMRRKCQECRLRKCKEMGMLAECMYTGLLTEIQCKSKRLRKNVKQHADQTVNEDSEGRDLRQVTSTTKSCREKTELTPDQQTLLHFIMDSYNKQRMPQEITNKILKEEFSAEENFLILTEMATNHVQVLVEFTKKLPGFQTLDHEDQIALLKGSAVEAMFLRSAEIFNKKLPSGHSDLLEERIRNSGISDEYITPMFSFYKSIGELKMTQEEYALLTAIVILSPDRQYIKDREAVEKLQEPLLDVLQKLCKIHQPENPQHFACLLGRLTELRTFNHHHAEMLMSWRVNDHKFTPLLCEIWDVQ
Assay: cell-based transcription assay, FXR responsive promoter linked to a luciferase reporter
Design: RE: scale not given here
Conditions: for EC50: FXR activation, read-out: EC50; for EC50 / FXR activation (in words): cell-based reporter assay; for RE: RE not defined in the source
Description: In addition to ensuring that only cell permeable compounds were selected for further optimization, this approach allows for the detection of FXR activation in a natural system (i.e., correct folding of the protein and in the presence of a complete compliment of co-activators and co-repressors).
The feasibility of creating high throughput screens (XIS) for ORs was explored using FXR as a candidate orphan receptor (OR) with a known activator, chenodeoxycholic acid (CDCA) as a ligand. The screen is based on the co-transfection of a full-length receptor with the reporter vector containing a natural hormone response element under a minimal eukaryotic promoter. […] Using this 384-well format, the high throughput screening (HTS) approach to FXR as a candidate OR was employed. […] A central question in the feasibility studies is whether this library is suitable for screening for nuclear receptor ligands. Samples of this library were first reformatted into a 384-well format and then subjected to the FXR cell-based assays described above and assessed for FXR-mediated transcriptional activity. Cells were exposed to approximately 10 μM of sample for 18 hrs prior to washing and luciferase analysis.
EC50 values were determined with Prism 3.0 software via the activity of the subject compound in the previously described cell based assay.

SMILES	EC50 (Tables 1-15) [µM]	RE (Tables 1-15)	FXR activation (in words)	EC50 [µM]
COC(=O)C=Cc1cccc(N(Cc2ccc(C=CC(=O)OC(C)(C)C)cc2OC(=O)c2ccccc2)C(=O)C2CCCCC2)c1 [Compound 165]	> 1	0.16	–	–
COC(=O)C=Cc1cccc(N(Cc2ccc(C=CC(=O)OC(C)(C)C)cc2OS(C)(=O)=O)C(=O)C2CCCCC2)c1 [Compound 166]	> 1	0.16	–	–
CCOC(=O)COc1cc(C=CC(=O)OC(C)(C)C)ccc1CN(C(=O)C1CCCCC1)c1cccc(C=CC(=O)OC)c1 [Compound 167]	> 1	0.16	–	–
COC(=O)/C=C/c1cccc(N(Cc2ccc(/C=C/c3ccc(C)cc3)cc2)C(=O)C2CCCCC2)c1 [Compound 174]	0.342	0.83	among the least active	–
COC(=O)/C=C/c1cccc(N(Cc2ccc(/C=C/c3ccc(C)cc3)cc2)C(=O)C(C)C)c1 [Compound 175]	–	0.37	–	–
COC(=O)/C=C/c1cccc(N(Cc2ccc(/C=C/c3ccc(C)cc3)cc2)C(=O)NC(C)C)c1 [Compound 176]	–	0.10	–	–
COC(=O)/C=C/c1cccc(N(Cc2ccc(/C=C/c3c(Cl)cccc3Cl)cc2)C(=O)C2CCCCC2)c1 [Compound 177]	0.15	0.12	excellent activity	–
COC(=O)/C=C/c1cccc(N(Cc2ccc(/C=C/c3c(Cl)cccc3Cl)cc2)C(=O)C(C)C)c1 [Compound 178]	0.195	0.14	–	–
COC(=O)/C=C/c1cccc(N(Cc2ccc(/C=C/c3c(Cl)cccc3Cl)cc2)C(=O)NC(C)C)c1 [Compound 179]	–	0.15	–	–
COC(=O)C=Cc1cccc(N(Cc2ccc(C=Cc3cccc(Cl)c3)cc2)C(=O)C2CCCCC2)c1 [Compound 180]	0.165	1.41	excellent activity	–
COC(=O)/C=C/c1cccc(N(Cc2ccc(/C=C/c3cccc(Cl)c3)cc2)C(=O)C(C)C)c1 [Compound 181]	0.264	1.09	excellent activity	–
COC(=O)/C=C/c1cccc(N(Cc2ccc(/C=C/c3cccc(Cl)c3)cc2)C(=O)NC(C)C)c1 [Compound 182]	0.339	0.58	–	–
COC(=O)/C=C/c1cccc(N(Cc2ccc(/C=C/c3cc(C(F)(F)F)cc(C(F)(F)F)c3)cc2)C(=O)C(C)C)c1 [Compound 184]	1.95	0.13	–	–
COC(=O)/C=C/c1cccc(N(Cc2ccc(/C=C/c3cc(C(F)(F)F)cc(C(F)(F)F)c3)cc2)C(=O)NC(C)C)c1 [Compound 185]	1.83	0.13	–	–
COC(=O)/C=C/c1cccc(N(Cc2ccc(/C=C/c3cccc(C(F)(F)F)c3)cc2)C(=O)C(C)C)c1 [Compound 187]	0.267	0.70	–	–
COC(=O)C=Cc1cccc(N(Cc2ccc(C=Cc3c(F)cccc3F)cc2)C(=O)C2CCCCC2)c1 [Compound 189]	0.174	0.94	excellent activity	–
COC(=O)/C=C/c1cccc(N(Cc2ccc(/C=C/c3c(F)cccc3F)cc2)C(=O)NC(C)C)c1 [Compound 191]	4.02	0.21	–	–
COC(=O)C=Cc1cccc(N(Cc2ccc(C=Cc3ccccc3F)cc2)C(=O)C2CCCCC2)c1 [Compound 192]	0.064	1.41	excellent activity; also recorded: among the most active	–
COC(=O)/C=C/c1cccc(N(Cc2ccc(/C=C/c3ccccc3F)cc2)C(=O)C(C)C)c1 [Compound 193]	0.07	1.17	excellent activity	–
COC(=O)/C=C/c1cccc(N(Cc2ccc(/C=C/c3ccccc3F)cc2)C(=O)NC(C)C)c1 [Compound 194]	0.431	0.89	–	–

SMILES	EC50 (Tables 1-15) [µM]	RE (Tables 1-15)	FXR activation (in words)	EC50 [µM]
COC(=O)C=Cc1cccc(N(Cc2ccc(C=Cc3c(C)cc(C)cc3C)cc2)C(=O)C2CCCCC2)c1 [Compound 195]	0.518	0.24	among the least active	–
COC(=O)/C=C/c1cccc(N(Cc2ccc(/C=C/c3c(C)cc(C)cc3C)cc2)C(=O)C(C)C)c1 [Compound 196]	0.149	0.30	–	–
COC(=O)/C=C/c1cccc(N(Cc2ccc(/C=C/c3c(C)cc(C)cc3C)cc2)C(=O)NC(C)C)c1 [Compound 197]	0.431	0.14	–	–
COC(=O)/C=C/c1cccc(N(Cc2ccc(/C=C/c3ccccc3)cc2)C(=O)C(C)C)c1 [Compound 198]	0.065	1.33	excellent activity	–
COC(=O)/C=C/c1cccc(N(Cc2ccc(/C=C/c3ccccc3)cc2)C(=O)NC(C)C)c1 [Compound 200]	0.119	1.38	–	–
COC(=O)C=Cc1cccc(N(Cc2ccc(C=Cc3cccc(F)c3)cc2)C(=O)C2CCCCC2)c1 [Compound 201]	0.086	1.38	excellent activity; also recorded: among the most active	–
COC(=O)/C=C/c1cccc(N(Cc2ccc(/C=C/c3cccc(F)c3)cc2)C(=O)C(C)C)c1 [Compound 202]	0.071	1.33	excellent activity	–
COC(=O)/C=C/c1cccc(N(Cc2ccc(/C=C/c3cccc(F)c3)cc2)C(=O)NC(C)C)c1 [Compound 203]	0.467	0.61	–	–
COC(=O)C=Cc1cccc(N(Cc2ccc(C=Cc3ccc(F)cc3)cc2)C(=O)C2CCCCC2)c1 [Compound 204]	0.185	0.53	excellent activity; also recorded: among the most active	–
COC(=O)/C=C/c1cccc(N(Cc2ccc(/C=C/c3ccc(F)cc3)cc2)C(=O)C(C)C)c1 [Compound 205]	–	1.19	excellent activity	–
COC(=O)/C=C/c1cccc(N(Cc2ccc(/C=C/c3ccc(F)cc3)cc2)C(=O)NC(C)C)c1 [Compound 206]	0.348	0.91	–	–
COC(=O)C=Cc1cccc(N(Cc2ccc(C=Cc3ccccn3)cc2)C(=O)C2CCCCC2)c1 [Compound 207]	–	0.61	–	0.309
COC(=O)C=Cc1cccc(N(Cc2ccc(C=Cc3ccccn3)cc2)C(=O)C(C)C)c1 [Compound 208]	0.31	0.62	–	–
COC(=O)C=Cc1cccc(N(Cc2ccc(C=Cc3ccccn3)cc2)C(=O)NC(C)C)c1 [Compound 209]	0.575	0.68	–	–
COC(=O)C=Cc1cccc(N(Cc2ccc(C=Cc3scnc3C)cc2)C(=O)C2CCCCC2)c1 [Compound 210]	–	0.53	–	0.227
COC(=O)C=Cc1cccc(N(Cc2ccc(C=Cc3scnc3C)cc2)C(=O)C(C)C)c1 [Compound 211]	0.228	0.32	–	–
COC(=O)C=Cc1cccc(N(Cc2ccc(C=Cc3scnc3C)cc2)C(=O)NC(C)C)c1 [Compound 212]	0.356	0.42	–	–
COC(=O)/C=C/c1cccc(N(Cc2ccc(-c3ccc(F)c(F)c3)cc2)C(=O)C2CCCCC2)c1 [Compound 213]	0.072	1.70	excellent activity	–
COC(=O)/C=C/c1cccc(N(Cc2ccc(-c3ccc(F)c(F)c3)cc2)C(=O)C(C)C)c1 [Compound 214]	0.249	1.15	–	–
